Our source for the pest or weed control values is patent publication US9265253B2, “Use of macrocyclic picolinamides as fungicides” (DOW AGROSCIENCES LLC, priority 2013, dated 2016).

Molecules are shown by their SMILES.

What all share (type): in vivo
The subject of one test is Uncinula necator. The experiment in a line: Grape Powdery Mildew (UNCINE) disease control. The settings on record: Erysiphe necator, topical, 24 h, 1 Day Protectant, read-out: Disease Control UNCINE 1 DP. The procedure: Technical grades of materials were dissolved in acetone, which were then mixed with nine volumes of water containing 110 ppm Triton X-100. The fungicide solutions were applied onto wheat seedlings using an automated booth sprayer to run-off. All sprayed plants were allowed to air dry prior to further handling. All fungicides were evaluated using the aforementioned method for their activity vs. all target diseases. Wheat leaf blotch and brown rust activity were also evaluated using track spray applications, in which case the fungicides were formulated as EC formulations, containing 0.1% Trycol 5941 in the spray solutions. Wheat plants (variety Yuma) were grown from seed in a greenhouse in 50% mineral soil/50% soil-less Metro mix until the first leaf was fully emerged, with 7-10 seedlings per pot. These plants were inoculated with an aqueous spore suspension of Septoria tritici either prior to or after fungicide treatments. After inoculation the plants were kept in 100% relative humidity (one day in a dark dew chamber followed by two to three days in a lighted dew chamber at 20° C.) to permit spores to germinate and infect the leaf. The plants were then transferred to a greenhouse set at 20° C. for disease to develop. When disease symptoms were fully expressed on the 1st leaves of untreated plants, infection levels were assessed on a scale of 0 to 100 percent disease severity. Percent disease control was calculated using the ratio of disease severity on treated plants relative to untreated plants. Grape seedlings (variety Carignane) were grown in soil-less Metro mix, with one plant per pot, and used in the test when approximately one month old. Plants were inoculated 24 hr after fungicide treatment by shaking spores from infected leaves over test plants. Plants were maintained in a greenhouse set at 20° C. until disease was fully developed. Fungicide formulation, application and disease assessment on the sprayed leaves followed the procedures as described in the Example A.

For another test, the system named is Erysiphe cichoracearum. The experiment in a line: Powdery Mildew of Cucumber (ERYSCI) disease control. The settings on record: Golovinomyces cichoracearum, topical, 24 h, 1 Day Protectant, read-out: Disease Control ERYSCI 1 DP. Here is the method:
Technical grades of materials were dissolved in acetone, which were then mixed with nine volumes of water containing 110 ppm Triton X-100. The fungicide solutions were applied onto wheat seedlings using an automated booth sprayer to run-off. All sprayed plants were allowed to air dry prior to further handling. All fungicides were evaluated using the aforementioned method for their activity vs. all target diseases. Wheat leaf blotch and brown rust activity were also evaluated using track spray applications, in which case the fungicides were formulated as EC formulations, containing 0.1% Trycol 5941 in the spray solutions. Wheat plants (variety Yuma) were grown from seed in a greenhouse in 50% mineral soil/50% soil-less Metro mix until the first leaf was fully emerged, with 7-10 seedlings per pot. These plants were inoculated with an aqueous spore suspension of Septoria tritici either prior to or after fungicide treatments. After inoculation the plants were kept in 100% relative humidity (one day in a dark dew chamber followed by two to three days in a lighted dew chamber at 20° C.) to permit spores to germinate and infect the leaf. The plants were then transferred to a greenhouse set at 20° C. for disease to develop. When disease symptoms were fully expressed on the 1st leaves of untreated plants, infection levels were assessed on a scale of 0 to 100 percent disease severity. Percent disease control was calculated using the ratio of disease severity on treated plants relative to untreated plants. Cucumber seedlings (variety Bush Pickle) were grown in soil-less Metro mix, with one plant per pot, and used in the test when 12 to 14 days old. Plants were inoculated with a spore suspension 24 hr following fungicide treatments. After inoculation the plants remained in the greenhouse set at 20° C. until disease was fully expressed. Fungicide formulation, application and disease assessment on the sprayed leaves followed the procedures as described in the Example A.

Another test deals with Alternaria solani. The experiment in a line: Tomato Early Blight (ALTESO) disease control. The settings on record: Alternaria solani, topical, 24 h, 1 Day Protectant, read-out: Disease Control ALTESO 1 DP. The procedure: Technical grades of materials were dissolved in acetone, which were then mixed with nine volumes of water containing 110 ppm Triton X-100. The fungicide solutions were applied onto wheat seedlings using an automated booth sprayer to run-off. All sprayed plants were allowed to air dry prior to further handling. All fungicides were evaluated using the aforementioned method for their activity vs. all target diseases. Wheat leaf blotch and brown rust activity were also evaluated using track spray applications, in which case the fungicides were formulated as EC formulations, containing 0.1% Trycol 5941 in the spray solutions. Wheat plants (variety Yuma) were grown from seed in a greenhouse in 50% mineral soil/50% soil-less Metro mix until the first leaf was fully emerged, with 7-10 seedlings per pot. These plants were inoculated with an aqueous spore suspension of Septoria tritici either prior to or after fungicide treatments. After inoculation the plants were kept in 100% relative humidity (one day in a dark dew chamber followed by two to three days in a lighted dew chamber at 20° C.) to permit spores to germinate and infect the leaf. The plants were then transferred to a greenhouse set at 20° C. for disease to develop. When disease symptoms were fully expressed on the 1st leaves of untreated plants, infection levels were assessed on a scale of 0 to 100 percent disease severity. Percent disease control was calculated using the ratio of disease severity on treated plants relative to untreated plants. Tomato plants (variety Outdoor girl) were propagated in soil-less Metro mix, with each pot having one plant, and used when 12 to 14 days old. Test plants were inoculated with an aqueous spore suspension of Alternaria solani 24 hr after fungicide treatments. After inoculation the plants were kept in 100% relative humidity (one day in a dark dew chamber followed by two to three days in a lighted dew chamber at 20° C.) to permit spores to germinate and infect the leaf. The plants were then transferred to a growth room at 22° C. for disease to develop. Fungicide formulation, application and disease assessment on the sprayed leaves followed the procedures as described in the Example A.

Test [1] has as its system Glomerella lagenarium; Anamorph: Colletotrichum lagenarium. The experiment in a line: Cucumber Anthracnose (COLLLA) disease control. The settings on record: Colletotrichum orbiculare, topical, 24 h, 1 Day Protectant, read-out: Disease Control COLLLA 1 DP. Here is the method:
Technical grades of materials were dissolved in acetone, which were then mixed with nine volumes of water containing 110 ppm Triton X-100. The fungicide solutions were applied onto wheat seedlings using an automated booth sprayer to run-off. All sprayed plants were allowed to air dry prior to further handling. All fungicides were evaluated using the aforementioned method for their activity vs. all target diseases. Wheat leaf blotch and brown rust activity were also evaluated using track spray applications, in which case the fungicides were formulated as EC formulations, containing 0.1% Trycol 5941 in the spray solutions. Wheat plants (variety Yuma) were grown from seed in a greenhouse in 50% mineral soil/50% soil-less Metro mix until the first leaf was fully emerged, with 7-10 seedlings per pot. These plants were inoculated with an aqueous spore suspension of Septoria tritici either prior to or after fungicide treatments. After inoculation the plants were kept in 100% relative humidity (one day in a dark dew chamber followed by two to three days in a lighted dew chamber at 20° C.) to permit spores to germinate and infect the leaf. The plants were then transferred to a greenhouse set at 20° C. for disease to develop. When disease symptoms were fully expressed on the 1st leaves of untreated plants, infection levels were assessed on a scale of 0 to 100 percent disease severity. Percent disease control was calculated using the ratio of disease severity on treated plants relative to untreated plants. Cucumber seedlings (variety Bush Pickle) were propagated in soil-less Metro mix, with each pot having one plant, and used in the test when 12 to 14 days old. Test plants were inoculated with an aqueous spore suspension of Colletotrichum lagenarium 24 hr after fungicide treatments. After inoculation the plants were kept in a dew room at 22° C. with 100% relative humidity for 48 hr to permit spores to germinate and infect the leaf. The plants were then transferred to a growth room set at 22° C. for disease to develop. Fungicide formulation, application and disease assessment on the sprayed leaves followed the procedures as described in the Example A.

For the compound `CCCO[C@@H]1[C@@H](CCC(C)C)CCC[C@H](NC(=O)c2nccc(OC)c2OC(C)=O)C(=O)O[C@H]1C` [Compound F64], the pest or weed control at 100 ppm (in the test with Uncinula necator; with Erysiphe cichoracearum; in the test with Alternaria solani; in test [1]) was 80 to 100% throughout.

On to `COc1ccnc(C(=O)N[C@H]2CCC[C@H](CCBr)[C@@H](Oc3ccccc3)[C@H](C)OC2=O)c1OC(C)=O` [Compound F80], for which the pest or weed control at 100 ppm with Uncinula necator was in the range of 0 to 80%; in the test with Alternaria solani it was 0 to 80%; in test [1], 80 to 100%.

Turning to `COc1ccnc(C(=O)N[C@H]2CCC[C@H](CC(F)F)[C@@H](Oc3ccccc3)[C@H](C)OC2=O)c1OC(C)=O` [Compound F82], the pest or weed control at 100 ppm lay in the range of 0 to 80% with Uncinula necator and 80 to 100% in test [1].

In the case of `C=C[C@H]1CCC[C@H](NC(=O)c2nccc(OC)c2OC(C)=O)C(=O)O[C@@H](C)[C@@H]1Oc1ccccc1` [Compound F86], the pest or weed control at 100 ppm lay within 80 to 100% in the test with Uncinula necator, 0 to 80% in the test on Alternaria solani and 80 to 100% in test [1].

On to `COc1ccnc(C(=O)N[C@H]2CCC[C@H](Cc3ccc(F)cc3)[C@@H](OCC(C)C)[C@H](C)OC2=O)c1OCOC(C)=O` [Compound F102], for which the pest or weed control at 100 ppm in the test on Uncinula necator is 0 to 80%; in test [1] it was 80 to 100%.

For the compound `COc1ccnc(C(=O)N[C@H]2CCC[C@H](Cc3ccccc3)[C@@H](Oc3ccccc3)[C@H](C)OC2=O)c1OCOC(C)=O` [Compound F108], the pest or weed control at 100 ppm (with Uncinula necator; in test [1]) was 80 to 100% each time.

Turning to `COc1ccnc(C(=O)N[C@H]2CCC[C@H](Cc3ccccc3)[C@@H](OC3CCCC3)[C@H](C)OC2=O)c1OCOC(C)=O` [Compound F110], the pest or weed control at 100 ppm in the test with Uncinula necator is 80 to 100%.

Regarding `COc1ccnc(C(=O)N[C@H]2CCC[C@H](CC3CCCCC3)[C@@H](OCC(C)C)[C@H](C)OC2=O)c1OCOC(C)=O` [Compound F113], the figures for the pest or weed control at 100 ppm in the test on Uncinula necator, in the test with Erysiphe cichoracearum and in the test on Alternaria solani were 0 to 80%, 80 to 100% and 80 to 100%, respectively.

As to `COc1ccc(C[C@H]2CCC[C@H](NC(=O)c3nccc(OC)c3OCOC(C)=O)C(=O)O[C@@H](C)[C@@H]2Oc2ccccc2)cc1` [Compound F114], the pest or weed control at 100 ppm in test [1] was 80 to 100%.

Consider `COc1ccc(C[C@H]2CCC[C@H](NC(=O)c3nccc(OC)c3OCOC(C)=O)C(=O)O[C@@H](C)[C@@H]2OCC(C)C)cc1` [Compound F118], for which the pest or weed control at 100 ppm lay within 0 to 80% in the test on Erysiphe cichoracearum, 0 to 80% in the test with Alternaria solani and 80 to 100% in test [1].

For `CCCO[C@@H]1[C@@H](Cc2ccc(OC)cc2)CCC[C@H](NC(=O)c2nccc(OC)c2OCOC(C)=O)C(=O)O[C@H]1C` [Compound F119], the pest or weed control at 100 ppm with Erysiphe cichoracearum was in the range of 80 to 100%; in the test with Alternaria solani, 0 to 80%; in test [1] it was 80 to 100%.

For `COc1ccnc(C(=O)N[C@H]2CCC[C@H](Cc3ccc(C)cc3)[C@@H](OCC(C)C)[C@H](C)OC2=O)c1OCOC(C)=O` [Compound F126], the pest or weed control at 100 ppm in the test on Erysiphe cichoracearum lay within 80 to 100%; with Alternaria solani it was 0 to 80%; in test [1], 80 to 100%.

In the case of `COc1ccnc(C(=O)N[C@H]2CCC[C@H](CC(F)F)[C@@H](Oc3ccccc3)[C@H](C)OC2=O)c1OCOC(C)=O` [Compound F138], the pest or weed control at 100 ppm in the test on Uncinula necator fell in the range of 0 to 80%; in test [1], 80 to 100%.

`C=C[C@H]1CCC[C@H](NC(=O)c2nccc(OC)c2OCOC(C)=O)C(=O)O[C@@H](C)[C@@H]1Oc1ccccc1` [Compound F146]: the pest or weed control at 100 ppm (with Uncinula necator; in the test with Alternaria solani; in test [1]) was 80 to 100% in each case.

Turning to `COc1ccnc(C(=O)N[C@H]2CCC[C@H](Cc3ccccc3)[C@@H](OCC(C)C)[C@H](C)OC2=O)c1OCOC(=O)C(C)C` [Compound F151], the pest or weed control at 100 ppm (in the test on Erysiphe cichoracearum; in the test with Alternaria solani; in test [1]) was 80 to 100% each time.

Take `COc1ccnc(C(=O)N[C@H]2CCC[C@H](Cc3ccc(F)cc3F)[C@@H](OC(=O)c3ccco3)[C@H](C)OC2=O)c1OCOC(=O)C(C)C` [Compound F157]: the pest or weed control at 100 ppm (in the test with Uncinula necator; with Alternaria solani; in test [1]) was 80 to 100% in each case.

Consider `CCOCC(=O)OCOc1c(OC)ccnc1C(=O)N[C@H]1CCC[C@H](Cc2ccc(F)cc2)[C@@H](OCC(C)C)[C@H](C)OC1=O` [Compound F168], for which the pest or weed control at 100 ppm (in the test on Uncinula necator; in test [1]) was 80 to 100% each time.

For `CCOCC(=O)OCOc1c(OC)ccnc1C(=O)N[C@H]1CCC[C@H](CC2CCCCC2)[C@@H](OCC(C)C)[C@H](C)OC1=O` [Compound F175], the pest or weed control at 100 ppm with Uncinula necator was 0 to 80%; in the test on Erysiphe cichoracearum it was 0 to 80%; with Alternaria solani it was 80 to 100%.

As for `CCOCC(=O)OCOc1c(OC)ccnc1C(=O)N[C@H]1CCC[C@H](Cc2ccc(F)cc2F)[C@@H](OC(=O)c2ccco2)[C@H](C)OC1=O` [Compound F193], the pest or weed control at 100 ppm in the test on Uncinula necator lay within 0 to 80%; with Alternaria solani it was 80 to 100%; in test [1] it was 80 to 100%.
